Counter-ions that a name gives are not always drawn. Like-named read-outs stand apart in the source and are kept apart here.
Tested on: panel of 240 cancer cell lines
Assay: Proliferation in a broad panel of 240 cancer cell lines, 2D culture (Eurofins Panlabs Oncopanel)
Assay type: cell-based
Protocol: Cell lines used in these experiments were obtained from the following sources and were cultured according to conditions specified by the respective cell banks. […] The cell lines listed above were tested for mycoplasma and were negative. Cells were authenticated by STR method or vendor protocols. All 313 cell lines in the CRIPSR pooled screen were purchased from commercial vendors and were STR authenticated and mycoplasma negative. A broad panel of cancer cell lines was screened in the Eurofins Oncopanel. All cells in this panel were mycoplasma negative and STR verified.

Measured: IC50

NC1CCC(S(=O)(=O)N2C3CCC2CC(NC(=O)c2cc(C4CC4)on2)C3)CC1 [EPZ028862, N-((1R,3R,5S)-8-((1r,4R)-4-aminocyclohexylsulfonyl)-8-aza-bicyclo[3.2.1]octan-3-yl)-5-cyclopropylisoxazole-3-carboxamide hydrochloride]
> 25 µM: Homo sapiens, LS174T, LS-174T, Colon/GI, read-out: IC50 | Homo sapiens, LS-1034, LS1034, Colon/GI, read-out: IC50 | Homo sapiens, MC-IXC, CNS, read-out: IC50 | Homo sapiens, MCF7, MCF7, Breast, read-out: IC50 | Homo sapiens, MDA-MB-231, MDA MB 231, Breast, read-out: IC50 | Homo sapiens, MDA-MB-436, MDA-MB-436, Breast, read-out: IC50 | Homo sapiens, MDA-MB-453, MDA MB 453, Breast, read-out: IC50 | Homo sapiens, MDA-MB-468, MDA MB 468, Breast, read-out: IC50 | Homo sapiens, MEG-01, MEG01, Haematopoietic and lymphoid, read-out: IC50 | Homo sapiens, MES-SA, Soft Tissue, read-out: IC50 | Homo sapiens, MG-63, MG-63, Soft Tissue, read-out: IC50 | Homo sapiens, MHH-PREB-1, MHH-PREB-1, Haematopoietic and lymphoid, read-out: IC50 | Homo sapiens, MIA PaCa-2, Mia PaCa-2, Pancreas, read-out: IC50 | Homo sapiens, MOLT-3, MOLT-3, Haematopoietic and lymphoid, read-out: IC50 | Homo sapiens, MOLT-16, MOLT-16, Haematopoietic and lymphoid, read-out: IC50 | Homo sapiens, MV4-11, MV-4-11, Haematopoietic and lymphoid, read-out: IC50 | Homo sapiens, Malme-3M, MALME3M, Skin, read-out: IC50 | Homo sapiens, MeWo, Skin, read-out: IC50 | Homo sapiens, NALM-6, NALM-6, Haematopoietic and lymphoid, read-out: IC50 | Homo sapiens, NCI-H69, NCI-H69, Lung, read-out: IC50 | Homo sapiens, NCI-H292, NCI-H292, Lung, read-out: IC50 | Homo sapiens, NCI-H295R, Endocrine, read-out: IC50 | Homo sapiens, NCI-H441, NCIH441, Lung, read-out: IC50 | Homo sapiens, NCI-H446, NCIH446, Lung, read-out: IC50 | Homo sapiens, NCI-H460, NCI-H460, Lung, read-out: IC50 | Homo sapiens, NCI-H508, NCI-H508, Colon/GI, read-out: IC50 | Homo sapiens, NCI-H520, NCI-H520, Lung, read-out: IC50 | Homo sapiens, NCI-H596, NCI-H596, Lung, read-out: IC50 | Homo sapiens, NCI-H661, NCI-H661, Lung, read-out: IC50 | Homo sapiens, NCI-H747, NCI-H747, Colon/GI, read-out: IC50 | Homo sapiens, OE19, OE19, Head and Neck, read-out: IC50 | Homo sapiens, OE33, OE33, Head and Neck, read-out: IC50 | Homo sapiens, OVCAR-3, OVCAR3, Female GU, read-out: IC50 | Homo sapiens, PANC-1, PANC-1, Pancreas, read-out: IC50 | Homo sapiens, RKOE6, RKOE6, Colon/GI, read-out: IC50 | Homo sapiens, RL95-2, RL95-2, Female GU, read-out: IC50 | Homo sapiens, RPMI-6666, RPMI 6666, Haematopoietic and lymphoid, read-out: IC50 | Homo sapiens, RPMI-7951, RPMI-7951, Skin, read-out: IC50 | Homo sapiens, RPMI-8226, RPMI 8226, Haematopoietic and lymphoid, read-out: IC50 | Homo sapiens, Raji, Haematopoietic and lymphoid, read-out: IC50 | Homo sapiens, Ramos, Ramos (RA 1), Haematopoietic and lymphoid, read-out: IC50 | Homo sapiens, SAOS-2, SaOS2, Soft Tissue, read-out: IC50 | Homo sapiens, SCC-4, SCC-4, Head and Neck, read-out: IC50 | Homo sapiens, SCC-9, SCC-9, Head and Neck, read-out: IC50 | Homo sapiens, SCC-25, SCC-25, Head and Neck, read-out: IC50 | Homo sapiens, SCaBER, Bladder, read-out: IC50 | Homo sapiens, SHP77, SHP-77, Lung, read-out: IC50 | Homo sapiens, SJRH30, SJRH30, Soft Tissue, read-out: IC50 | Homo sapiens, SJSA-1, SJSA1, Soft Tissue, read-out: IC50 | Homo sapiens, SK-BR-3, SK-BR-3, Breast, read-out: IC50 | Homo sapiens, SK-LMS-1, SK-LMS-1, Soft Tissue, read-out: IC50 | Homo sapiens, SK-MEL3, SK-MEL-3, Skin, read-out: IC50 | Homo sapiens, SK-MEL-1, SK-MEL-1, Skin, read-out: IC50 | Homo sapiens, SK-MEL-28, SK-MEL-28, Skin, read-out: IC50 | Homo sapiens, SK-MES-1, SKMES1, Lung, read-out: IC50 | Homo sapiens, SK-N-AS, CNS, read-out: IC50 | Homo sapiens, SK-N-DZ, CNS, read-out: IC50 | Homo sapiens, SK-N-FI, CNS, read-out: IC50 | Homo sapiens, SK-NEP-1, SK-NEP-1, Kidney, read-out: IC50 | Homo sapiens, SK-OV-3, SKOV3, Female GU, read-out: IC50 | Homo sapiens, SK-UT-1, SK-UT-1, Soft Tissue, read-out: IC50 | Homo sapiens, SNB-19, SNB-19, CNS, read-out: IC50 | Homo sapiens, SNU1, SNU-1, Colon/GI, read-out: IC50 | Homo sapiens, SNU-5, SNU-5, Colon/GI, read-out: IC50 | Homo sapiens, SNU-16, SNU-16, Colon/GI, read-out: IC50 | Homo sapiens, SNU-423, SNU-423, Liver, read-out: IC50 | Homo sapiens, ST486, ST486, Haematopoietic and lymphoid, read-out: IC50 | Homo sapiens, SU.86.86, SU.86.86, Pancreas, read-out: IC50 | Homo sapiens, SW13, SW-13, Endocrine, read-out: IC50 | Homo sapiens, SW48, SW48, Colon/GI, read-out: IC50 | Homo sapiens, SW480, SW480, Colon/GI, read-out: IC50 | Homo sapiens, SW684, SW684, Soft Tissue, read-out: IC50 | Homo sapiens, SW837, SW837, Colon/GI, read-out: IC50 | Homo sapiens, SW872, SW872, Soft Tissue, read-out: IC50 | Homo sapiens, SW900, SW900, Lung, read-out: IC50 | Homo sapiens, SW948, SW948, Colon/GI, read-out: IC50 | Homo sapiens, SW 954, SW954, Female GU, read-out: IC50 | Homo sapiens, SW 962, SW962, Female GU, read-out: IC50 | Homo sapiens, SW982, SW982, Soft Tissue, read-out: IC50 | Homo sapiens, SW1088, SW1088, CNS, read-out: IC50 | Homo sapiens, SW1353, SW1353, Soft Tissue, read-out: IC50 | Homo sapiens, SW1417, SW1417, Colon/GI, read-out: IC50 | Homo sapiens, SW1463, SW1463, Colon/GI, read-out: IC50 | Homo sapiens, SW1783, SW1783, CNS, read-out: IC50 | Homo sapiens, SW-403, SW403, Colon/GI, read-out: IC50 | Homo sapiens, SW-620, SW620, Colon/GI, read-out: IC50 | Homo sapiens, SiHa, Female GU, read-out: IC50 | Homo sapiens, T47D, Breast, read-out: IC50 | Homo sapiens, T98G, CNS, read-out: IC50 | Homo sapiens, TCC-SUP, TCCSUP, Bladder, read-out: IC50 | Homo sapiens, THP-1, Thp1, Haematopoietic and lymphoid, read-out: IC50 | Homo sapiens, U2OS, Soft Tissue, read-out: IC50 | Homo sapiens, U138-MG, U-138MG, CNS, read-out: IC50 | Homo sapiens, U-87 MG, CNS, read-out: IC50 | Homo sapiens, UMUC3, UM-UC-3, Bladder, read-out: IC50 | Homo sapiens, WI-38, Wi38, Lung, read-out: IC50 | Homo sapiens, WiDr, Colon/GI, read-out: IC50 | Homo sapiens, YAPC, Pancreas, read-out: IC50 | Hs766T, Hs 766T, Pancreas, read-out: IC50 | J82, Bladder, read-out: IC50 | JAR, Female GU, read-out: IC50 | KHOS-240S, Soft Tissue, read-out: IC50 | KLE, Female GU, read-out: IC50 | KPL-1, KPL-1, Breast, read-out: IC50 | MT-3, Breast, read-out: IC50 | MX1, Haematopoietic and lymphoid, read-out: IC50 | OCUG-1, OCUG-1, Liver, read-out: IC50 | OE21, OE21, Head and Neck, read-out: IC50 | PC-3, Prostate, read-out: IC50 | RD, Soft Tissue, read-out: IC50 | RKO, Colon/GI, read-out: IC50 | RKOAS451, RKO-AS45-1, Colon/GI, read-out: IC50 | SH-4, Skin, read-out: IC50 | SKO-007, SKO-007, Haematopoietic and lymphoid, read-out: IC50 | SR, Haematopoietic and lymphoid, read-out: IC50 | SW579, SW579, Endocrine, read-out: IC50 | T24, Bladder, read-out: IC50 | TE 381.T, Soft Tissue, read-out: IC50 | U266B1, Haematopoietic and lymphoid, read-out: IC50 | Y79, Eye-retinoblastoma, read-out: IC50 | read-out: anti-proliferative IC50 across the panel of 240 cancer cell lines, 2D culture

From publication PMC5983452 (PLoS ONE, 2018)
